Values of other authors, collected in patent US20080161337A1 (priority 2007, published 2008).

Key:
[1] = test system: SIBO; conditions: for clinical efficacy for treating SIBO: antibiotics traditionally recommended for treating SIBO
[2] = test system: SIBO; conditions: 34 patients with SIBO and functional gastrointestinal symptoms
[3] = test system: functional bowel syndrome patients with abnormal LBT; conditions: 20 functional bowel syndrome patients with abnormal LBT; 63-day average follow up
[4] = test system: SIBO; conditions: 21 patients with SIBO
[5] = test system: IBS patients; conditions: 86 IBS patients; sustained for ten weeks after a ten day course
[6] = test system: IBS patients with abnormal LBT; conditions: 82 IBS patients with abnormal LBT; 54-day average follow up
[7] = test system: IBS patients

**Q.** With `Cc1ncc([N+](=O)[O-])n1CCO` [metronidazole] as the compound, how does the “clinical efficacy for treating SIBO” value [1] read?
**A.** 5%

**Q.** With `CO[C@H]1/C=C/O[C@@]2(C)Oc3c(C)c(O)c4c(O)c(c5c(nc6cc(C)ccn65)c4c3C2=O)NC(=O)/C(C)=C\C=C\[C@H](C)[C@H](O)[C@@H](C)[C@@H](O)[C@@H](C)[C@H](OC(C)=O)[C@@H]1C` [rifaximin] as the compound, how does the “LBT results and functional gastrointestinal symptoms” value [2] read?
**A.** improved LBT results and functional gastrointestinal symptoms

**Q.** What about the “combined global improvement rated great and moderate” value [3] of the same compound?
**A.** 63%

**Q.** What about the “improvement in functional gastrointestinal symptoms” value [4] of the same compound?
**A.** greater with rifaximin than chlortetracycline

**Q.** What about the “patients with normalized LBT” value ([4]; rifaximin seven days at 1200 mg/day) of the same compound?
**A.** 70%

**Q.** And the “effectiveness against SIBO” value ([1]; human, in vivo)?
**A.** highly effective against SIBO

**Q.** What about the “solubility in water” value of the same compound?
**A.** practically insoluble in water

**Q.** What about the “global IBS symptoms” value [5] of the same compound?
**A.** statistically significant improvement

**Q.** What about the “combined global improvement rated great and moderate” value [6] of the same compound?
**A.** 60%

**Q.** Which results are given for neomycin?
**A.** results versus placebo ([7]; 111 IBS patients randomized to neomycin or placebo): significantly better results; improvement of symptoms ([7]; when the LBT was normalized): 75%; clinical efficacy for treating SIBO [1]: 25%
